One test deals with CD8+ T cell response. The following applies: following transcutaneous immunization with imiquimod in mice; cited from earlier work.
The subject of a further test is influenza. The following applies: combined with a vaccine, compared to the vaccine alone; cited from earlier work.
Test [1] concerns CD11c positive Dendritic cells (DCs). The test is described as follows: TLR7 mediated activation of splenic dendritic cells in vitro (CD40, CD80, CD86 by flow cytometry). Format: cell-based, C57BL/6 mice. Particulars: R-848 10 μg/ml, 24 h incubation; NAC 5 mM. As for the experimental part:
CD11c positive Dendritic cells (DCs) were purified from spleens from C57BL/6 mice) as described in Weber M et al. (2014) and activated as indicated with the TLR7/8 agonist R-848 (10 μg/ml), anthralin (dithranol), N-acetyl cysteine (NAC 5 mM) or left untreated in Iscoves's medium+5% FCS (Michael Weber et al., “Donor and Host B Cell-Derived IL-10 Contributes to Suppression of Graft-Versus-Host Disease.,” European Journal of Immunology 44, no. 6 (June 2014): 1857-65, doi:10.1002/eji.201344081).
After 24 h incubation, the cells were harvested, labeled with specific mAbs and analyzed by flow cytometry for the activation markers CD40, CD80 and CD86 gating on live (propidium iodide negative, CD11c/MHC class II positive DCs).
Spleens of C57BL6/J wildtype mice were harvested, picked and digested for 45 min with type 2 collagenase (50 U/ml from Worcester, Pappenheim, Germany) and stopped by adding 2 mM EDTA (from Sigma-Aldrich, Taufkirchen, Germany). After a hypotonic lysis step DCs were isolated using CD11c MicroBeads UltraPure (Miltenyi Biotec, Germany) following the manufacturer's instruction. 2×10^5 CD11c^+ DCs/well were plated in 96 well plates and cultivated for either 24 or 48 h in the presence of TLR7 ligand R-848 (10 μg/ml) and/or different concentrations of anthralin (solved in DMSO). […] Following cytokines were quantified using CBA technology: IL-1b; IL-6; IL-10; IL-12; IL-23; TNF-α.
In general terms: Flow cytometry measures light scatter and fluorescence of single cells or particles in a stream.

For test [2], the system named is peptide-specific CD8+ T cells. The experiment in a line: Imiquimod based transcutaneous immunization (TCI), primary T cell response (tetramer flow cytometry, in vivo cytolytic activity, IFN-γ ELISpot). The following applies: for T cell activation (primary T cell response): 0.0625% in Vaseline on ear skin 24 h before TCI (IMI-Sol + OVA peptides), read-out day 7. Further details: species or system C57BL/6 mice.

For test [3], the system named is peptide-specific CD8+ T cells. The test is described as follows: Imiquimod based TCI, memory immune response (secondary T cell response), Day 35. Particulars: dithranol 0.0625% in Vaseline 24 h before TCI; read-out Day 35. Format: in vivo, C57BL/6 mice. As for the experimental part:
C57BL/6 mice (n=3-8 per group) were immunized by TCI, performed as described in FIG. 1 (A) The frequency of peptide-specific CD8^+ T cells was assessed on Day 35 via flow cytometry. (B) The in vivo cytolytic activity was analyzed on Day 35, 20 h after transfer of peptide-loaded splenocytes. (C) IFN-γ production of splenocytes on Day 35 post the indicated treatments. Splenocytes were re-stimulated with the indicated peptides for 24 h before harvest and analysis by ELISpot assay. * Significance by One Way ANOVA with Bonferroni Posttest analysis; p<0.05 (*). […]
For detecting in vivo cytolytic activity, splenocytes of syngenic wildtype mice were labeled with different amounts of 5,6-carboxyfluorescein diacetate succinimidyl ester (CFSE; Invitrogen, Carlsbad, USA) resulting in a CFSE^low and a CFSE^high population. […] Specific lysis was evaluated as following: Specific lysis (%)=100×(1−([…]). All analyses were performed with a LSRII Flow Cytometer and FACSDiva Software (Becton Dickinson, Franklin Lakes, USA). […]

The mark [4] stands for this setting: α-Tocopherol 600 U/kg i.p. 1 h before anthralin and/or TCI, day 7.

The text below walks through data of patent US20260207735A1, “Pharmaceutical compositions, vaccines and their uses in the prevention or treatment of a persistent infection or of cancer” (Universitätsmedizin der Johannes Gutenberg-Universität Mainz, priority 2018, published 2026).

As for `Oc1cc2ccccc2c2ccccc12` [9-phenanthrol], the “generation of a CD8+ T cell response” value in the test with CD8+ T cell response was “enhances the generation of a CD8+ T cell response”.
As to `CC(C)Cn1cnc2c(N)nc3ccccc3c21` [Imiquimod, imiquimod], in the test with influenza, the survival of mice result is given as “improve survival of mice”.
For `CC(=O)N[C@@H](CS)C(=O)O` [NAC, N-acetyl cysteine], the “TLR7 mediated activation of DCs (CD40, CD80, CD86)” value in test [1] was “activation phenotype is restored”.
Regarding `O=C1c2cccc(O)c2C(=O)c2c(O)cccc21` [danthron], the “T cell activation (primary T cell response)” value in test [2] is given as “no impact on T cell activation”.
`O=C1c2c(O)cccc2Cc2cccc(O)c21` [dithranol, 1,8-dihydroxy-9-anthrone]: in test [2], the “T cell activation (primary T cell response)” value was “synergistic effect on T cell activation on CD8 positive as well as CD4 positive T cells”. The “site dependence of synergistic T cell activation” value in test [2] (TCI on both ears or only one ear, day 7) is reported as “required at the same site (ear) to mediate synergistic T cell activation”. In test [3], the “T cell activation including memory T cell formation (secondary T cell response)” value was “synergistic effect on T cell activation on CD8 positive as well as CD4 positive T cells including memory T cell formation”. Besides, the “TLR7 mediated activation of DCs (CD40, CD80, CD86)” value in test [1] was “suppresses the TLR7 mediated activation of DCs in vitro”.
Take `Cc1c(C)c2c(c(C)c1O)CC[C@@](C)(CCC[C@H](C)CCC[C@H](C)CCCC(C)C)O2` [α-Tocopherol]: in test [2] (setting [4]), the “CTL frequency (peptide-specific CD8+ T cells)” value is “without affecting CTL frequency” and the “in vivo cytolytic activity induced by dithranol (anthralin) TCI” value is “antagonizes the enhanced cytolytic activity induced by dithranol (anthralin) TCI”.
